Like-named read-outs stand apart in the source and are kept apart here. Peptide text beside a SMILES is read from it. * marks the point of attachment. Hydrocinnamoyl = O=C(CCc1ccccc1)*
Experiments:
[1] = target: human α-thrombin (Homo sapiens, UniProt P00734); assay: Thrombin assay: inhibition of chromogenic substrate (Pefachrome t-PA) hydrolysis; type: biochemical; settings: purified human α-thrombin 0.25 nM, substrate 300 µM, 30 minute incubation, HBSA pH 7.5
Method: (§1) In the assays for thrombin, factor Xa and plasmin, a chromogenic synthetic substrate is added to a solution containing test compound and the enzyme of interest and the residual catalytic activity of that enzyme is determined spectrophometrically. The IC50 of compound is determined from the substrate turnover. […] The buffer used for all assays was HBSA (10 mM HEPES, pH 7.5, 150 mM sodium chloride, 0.1% bovine serum albumin). […] Following a 30 minute incubation at ambient temperature, 50 µL of the substrate at the concentrations specified below, was added to the wells yielding a final total volume of 200 µL.

[2] = target: T1, Human factor Xa (Homo sapiens, UniProt P00742); assay: Factor Xa assay: inhibition of chromogenic substrate (S2765) hydrolysis; type: biochemical; settings: human factor Xa 0.5 nM, substrate 250 µM, 30 minute incubation, HBSA pH 7.5
T1 construct: Human factor Xa was prepared from purified human factor X obtained from Enzyme Research Laboratories; purchased Enzyme Research Laboratories
T1 sequence (P00742 235-488 limits assumed): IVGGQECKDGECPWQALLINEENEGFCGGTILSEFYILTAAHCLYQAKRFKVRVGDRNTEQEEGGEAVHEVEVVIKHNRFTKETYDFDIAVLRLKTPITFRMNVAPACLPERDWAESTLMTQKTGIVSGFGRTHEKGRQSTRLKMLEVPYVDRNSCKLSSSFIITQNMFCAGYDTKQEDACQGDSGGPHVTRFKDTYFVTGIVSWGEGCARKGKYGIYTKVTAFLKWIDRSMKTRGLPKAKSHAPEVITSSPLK
T1 sequence (P00742 41-179 partner limits assumed): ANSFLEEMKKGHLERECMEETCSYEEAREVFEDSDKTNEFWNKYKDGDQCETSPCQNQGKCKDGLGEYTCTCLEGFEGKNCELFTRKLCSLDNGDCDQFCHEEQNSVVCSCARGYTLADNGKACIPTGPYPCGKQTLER
Method: as §1, with “μL” for “µL”, “μL. […] Factor Xa catalytic activity was determined using the substrate, S2765 (N-α-benzyloxycarbonyl-[…]-nitroanilide dihydrochloride) which was obtained from Kabi Diagnostica. […] Human factor Xa was prepared from purified human factor X obtained from Enzyme Research Laboratories according to the method described by Bock, P.E. et al., Archives of Biochem. Biophys. […] The enzyme was diluted into HBSA prior to the assay in which the final concentration was 0.5 nM.” for “µL.”

[3] = target: human plasmin (Homo sapiens, UniProt P00747); assay: Plasmin assay: inhibition of chromogenic substrate (S-2251) hydrolysis; type: biochemical; settings: purified human plasmin 1.0 nM, substrate 300 µM, 30 minute incubation, HBSA pH 7.5
Chain of human plasmin (P00747 581-810 limits assumed): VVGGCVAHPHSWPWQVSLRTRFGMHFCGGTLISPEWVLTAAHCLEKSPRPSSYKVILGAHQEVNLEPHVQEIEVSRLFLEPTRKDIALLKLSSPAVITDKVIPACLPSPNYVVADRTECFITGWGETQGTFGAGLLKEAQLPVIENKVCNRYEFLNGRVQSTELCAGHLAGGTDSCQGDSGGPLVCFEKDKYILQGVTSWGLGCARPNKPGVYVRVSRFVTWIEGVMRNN
Chain of human plasmin (P00747 97-580 partner limits assumed): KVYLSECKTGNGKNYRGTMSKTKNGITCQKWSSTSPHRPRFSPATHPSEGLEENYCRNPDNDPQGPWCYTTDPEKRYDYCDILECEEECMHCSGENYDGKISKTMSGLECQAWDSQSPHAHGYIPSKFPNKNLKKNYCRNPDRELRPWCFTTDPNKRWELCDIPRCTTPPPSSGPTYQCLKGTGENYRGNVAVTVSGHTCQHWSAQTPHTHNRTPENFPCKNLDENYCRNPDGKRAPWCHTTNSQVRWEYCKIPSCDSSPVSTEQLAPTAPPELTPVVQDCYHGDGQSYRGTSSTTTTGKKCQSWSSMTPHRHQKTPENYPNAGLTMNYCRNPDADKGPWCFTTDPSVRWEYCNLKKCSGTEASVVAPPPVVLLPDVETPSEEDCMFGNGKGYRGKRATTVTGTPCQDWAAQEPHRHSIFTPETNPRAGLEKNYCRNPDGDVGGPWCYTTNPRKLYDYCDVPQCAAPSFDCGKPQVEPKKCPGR
Method: as §1, with “μL” for “µL”, “μL. […] Plasmin catalytic activity was determined using the chromogenic substrate, […] dihydrochloride], which was obtained from Kabi Diagnostica.” for “µL.”

[4] = system: FeCl3-induced platelet-dependent arterial thrombosis; settings: rat, [Isolated clot/(Intact segment-Empty segment)] X 100, mean ± S.E.M., control 68.65±3.75

Row | IC50 [1] [nM] | IC50 [2] [nM] | IC50 [3] [nM] | Compound | Clot Size ([4]; Group1: 25µg/kg/min i.v. infusion) [%] | Clot Size ([4]; Group2: 50µg/kg/min i.v. infusion, p<0.01 vs Control) [%] | Clot Size ([4]; Group3: 100µg/kg/min i.v. infusion, p<0.01 vs Control) [%]
1 | 147 | 57 | 843 | CC(C)CCC(=O)N[C@@H](CC(=O)O)C(=O)N1CCC[C@H]1C(=O)N[C@H](C=O)CCCNC(=N)N [4MeV-Asp-Pro-Arg-al, N-(4-methylpentanoyl)-L-aspartyl-L-prolyl-L-argininal] |  |  | 
2 | 8.5 | 173 | 283 | CCCC(CCC)C(=O)N[C@@H](CC(=O)O)C(=O)N1CCC[C@H]1C(=O)N[C@H](C=O)CCCNC(=N)N [2PrPent-Asp-Pro-Arg-al, N-(2-propylpentanoyl)-L-aspartyl-L-prolyl-L-argininal] |  |  | 
3 |  | 293 | 326 | CCCC(CCC)C(=O)N[C@@H](CC(=O)OC)C(=O)N1CCC[C@H]1C(=O)N[C@H](C=O)CCCNC(=N)N [2PrPent-Asp(OCH3)-Pro-Arg-al] |  |  | 
4 | 52.9 | 31 | 830 | N=C(N)NCCC[C@@H](C=O)NC(=O)[C@@H]1CCCN1C(=O)[C@H](CC(=O)O)NC(=O)CCC1CCCCC1 [ChxPA-Asp-Pro-Arg-al, N-(3-cyclohexanepropionyl)-L-aspartyl-L-prolyl-L-argininal] |  |  | 
5 | 43.7 | 213 | 546 | COC(=O)C[C@H](NC(=O)CCc1ccccc1)C(=O)N1CCC[C@H]1C(=O)N[C@H](C=O)CCCNC(=N)N [HCA-Asp(OCH3)-Pro-Arg-al, N-(3-phenylpropanoyl)-L-aspartyl-β-(methyl ester)-L-prolyl-L-argininal] (Hydrocinnamoyl-Asp(OMe)-Pro-Arg-aldehyde) |  |  | 
6 | 53.9 | 130 | 140 | N=C(N)NCCC[C@@H](C=O)NC(=O)[C@@H]1CCCN1C(=O)[C@H](CC(=O)O)NC(=O)CC1CCCCC1 [ChxAc-Asp-Pro-Arg-al, N-(1-cyclohexylacetyl)-L-aspartyl-L-prolyl-L-argininal] |  |  | 
7 | 88 | 64.5 | 500 | 3-tetrazolyl-2-(4-methylvaleroylamido) propionoyl-L-prolyl-L-argininal [4MeV-Ala(Tzl)-Pro-Arg-al] |  |  | 

Row | Compound | IC50 [1] [nM] | IC50 [2] [nM] | IC50 [3] [nM] | Clot Size ([4]; Group1: 25µg/kg/min i.v. infusion) [%] | Clot Size ([4]; Group2: 50µg/kg/min i.v. infusion, p<0.01 vs Control) [%] | Clot Size ([4]; Group3: 100µg/kg/min i.v. infusion, p<0.01 vs Control) [%]
8 | N-Boc-D-phenylalanyl-L-aspartyl-L-prolyl-L-argininal [Boc-(D-Phe)-Pro-Arg-al, reference compound] | 4.6 |  | 1000 |  |  | 
9 | N-(3-phenylpropanyl)-L-aspartyl-L-prolyl-L-argininal [HCA-Asp-Pro-Arg-al] | 234 | 91.5 | 326 | 48.38±24.71 | 22.38±21.0 | 3.38±5.44
